Data as given in the NIST ThermoML archive (doi:10.1021/je600557n).
Numbers after ± are expanded uncertainties.

Columns and labels:
[1] = xn = mol fraction of the nth substance listed; details: 101 kPa, Liquid
[2] = molar heat capacity at constant pressure; xn = mol fraction of the nth substance listed; details: 101 kPa, Liquid, Small sample (50 mg) DSC
[3] = refractive index (Na D-line) (dimensionless); xn = mol fraction of the nth substance listed; details: 101 kPa, Liquid, Standard Abbe refractometry

C1CCOCC1 [tetrahydropyran] + C[S+](C)[O-]
Details | mass density, [1] [kg/m3] | molar heat capacity at constant pressure, [2] [J/K/mol] | refractive index, [3] | viscosity, [1] [mPa·s]
293.15 K, x2 = 0.073 | 895.7 ± 0.57 | – | 1.4268 ± 0.0007 | 0.906 ± 0.015
293.15 K, x2 = 0.0996 | – | 148.8 ± 2.3 | – | –
293.15 K, x2 = 0.1171 | 903.11 ± 0.55 | – | 1.4288 ± 0.0007 | 0.931 ± 0.015
293.15 K, x2 = 0.1317 | – | 149.7 ± 2.3 | – | –
293.15 K, x2 = 0.2176 | 920.63 ± 0.49 | – | 1.4336 ± 0.0007 | 1.005 ± 0.016
293.15 K, x2 = 0.2636 | – | 153 ± 2.4 | – | –
293.15 K, x2 = 0.3108 | 937.76 ± 0.44 | – | 1.4383 ± 0.0007 | 1.082 ± 0.017
293.15 K, x2 = 0.3636 | – | 154.6 ± 2.4 | – | –
293.15 K, x2 = 0.4069 | 956.42 ± 0.39 | – | 1.4433 ± 0.0007 | 1.173 ± 0.018
293.15 K, x2 = 0.4832 | – | 155.9 ± 2.4 | – | –
293.15 K, x2 = 0.4982 | 975.18 ± 0.34 | – | 1.4483 ± 0.0007 | 1.274 ± 0.02
293.15 K, x2 = 0.5309 | – | 156 ± 2.4 | – | –
293.15 K, x2 = 0.5763 | – | 155.8 ± 2.4 | – | –
293.15 K, x2 = 0.5786 | 992.6 ± 0.29 | – | 1.4528 ± 0.0007 | 1.377 ± 0.021
293.15 K, x2 = 0.6227 | 1002.56 ± 0.27 | – | 1.4554 ± 0.0007 | 1.433 ± 0.022
293.15 K, x2 = 0.6527 | 1009.49 ± 0.28 | – | 1.4573 ± 0.0007 | 1.476 ± 0.023
293.15 K, x2 = 0.6773 | – | 155.5 ± 2.4 | – | –
293.15 K, x2 = 0.7338 | 1028.89 ± 0.31 | – | 1.4624 ± 0.0007 | 1.605 ± 0.024
293.15 K, x2 = 0.7586 | – | 154.7 ± 2.4 | – | –
293.15 K, x2 = 0.8085 | 1047.69 ± 0.34 | – | 1.4673 ± 0.0007 | 1.75 ± 0.027
293.15 K, x2 = 0.8412 | – | 153.7 ± 2.4 | – | –
293.15 K, x2 = 0.9237 | – | 152 ± 2.4 | – | –
293.15 K, x2 = 0.9321 | 1080.93 ± 0.4 | – | 1.4761 ± 0.0007 | 2.022 ± 0.03
293.15 K, x2 = 0.9579 | – | 151.4 ± 2.3 | – | –
303.15 K, x2 = 0.0996 | – | 152.5 ± 2.4 | – | –
303.15 K, x2 = 0.1175 | 893.4 ± 0.57 | – | 1.4226 ± 0.0007 | 0.804 ± 0.013
303.15 K, x2 = 0.1317 | – | 153.1 ± 2.4 | – | –
303.15 K, x2 = 0.2209 | 911.49 ± 0.51 | – | 1.4275 ± 0.0007 | 0.865 ± 0.014
303.15 K, x2 = 0.2636 | – | 155 ± 2.4 | – | –
303.15 K, x2 = 0.3113 | 928.13 ± 0.46 | – | 1.4322 ± 0.0007 | 0.925 ± 0.015
303.15 K, x2 = 0.3636 | – | 156.1 ± 2.4 | – | –
303.15 K, x2 = 0.411 | 947.52 ± 0.41 | – | 1.4375 ± 0.0007 | 1.001 ± 0.016
303.15 K, x2 = 0.4832 | – | 156.6 ± 2.4 | – | –
303.15 K, x2 = 0.4945 | 964.64 ± 0.36 | – | 1.4422 ± 0.0007 | 1.078 ± 0.017
303.15 K, x2 = 0.5309 | – | 156.8 ± 2.4 | – | –
303.15 K, x2 = 0.5341 | 973.08 ± 0.34 | – | 1.4444 ± 0.0007 | 1.112 ± 0.017
303.15 K, x2 = 0.5763 | – | 156.5 ± 2.4 | – | –
303.15 K, x2 = 0.5869 | 984.64 ± 0.3 | – | 1.4477 ± 0.0006 | 1.168 ± 0.018
303.15 K, x2 = 0.6597 | 1001.27 ± 0.26 | – | 1.4522 ± 0.0006 | 1.25 ± 0.019
303.15 K, x2 = 0.6773 | – | 156 ± 2.4 | – | –
303.15 K, x2 = 0.7348 | 1019.24 ± 0.29 | – | 1.4571 ± 0.0006 | 1.345 ± 0.021
303.15 K, x2 = 0.7586 | – | 155.5 ± 2.4 | – | –
303.15 K, x2 = 0.8105 | 1038.27 ± 0.32 | – | 1.4621 ± 0.0006 | 1.453 ± 0.022
303.15 K, x2 = 0.8412 | – | 154.6 ± 2.4 | – | –
303.15 K, x2 = 0.876 | 1055.53 ± 0.35 | – | 1.4666 ± 0.0006 | 1.563 ± 0.024
303.15 K, x2 = 0.9237 | – | 153.2 ± 2.4 | – | –
303.15 K, x2 = 0.9393 | 1072.96 ± 0.38 | – | 1.471 ± 0.0006 | 1.679 ± 0.025
303.15 K, x2 = 0.9579 | – | 152.9 ± 2.4 | – | –
313.15 K, x2 = 0.07165 | 875.38 ± 0.62 | – | 1.4152 ± 0.0007 | 0.681 ± 0.011
313.15 K, x2 = 0.0996 | – | 157.1 ± 2.4 | – | –
313.15 K, x2 = 0.1195 | 883.44 ± 0.59 | – | 1.4173 ± 0.0007 | 0.701 ± 0.012
313.15 K, x2 = 0.1317 | – | 157.7 ± 2.4 | – | –
313.15 K, x2 = 0.2128 | 899.76 ± 0.54 | – | 1.422 ± 0.0006 | 0.745 ± 0.012
313.15 K, x2 = 0.2636 | – | 159.3 ± 2.5 | – | –
313.15 K, x2 = 0.3143 | 918.44 ± 0.48 | – | 1.4272 ± 0.0006 | 0.803 ± 0.013
313.15 K, x2 = 0.3636 | – | 160 ± 2.5 | – | –
313.15 K, x2 = 0.4102 | 937.09 ± 0.43 | – | 1.4323 ± 0.0006 | 0.863 ± 0.014
313.15 K, x2 = 0.4832 | – | 160.5 ± 2.5 | – | –
313.15 K, x2 = 0.4969 | 954.93 ± 0.38 | – | 1.4375 ± 0.0006 | 0.927 ± 0.015
313.15 K, x2 = 0.5309 | – | 160.3 ± 2.5 | – | –
313.15 K, x2 = 0.5311 | 962.23 ± 0.36 | – | 1.4394 ± 0.0006 | 0.953 ± 0.015
313.15 K, x2 = 0.5763 | – | 160.1 ± 2.5 | – | –
313.15 K, x2 = 0.5865 | 974.36 ± 0.32 | – | 1.4429 ± 0.0006 | 0.997 ± 0.016
313.15 K, x2 = 0.6595 | 991.06 ± 0.27 | – | 1.4474 ± 0.0006 | 1.063 ± 0.017
313.15 K, x2 = 0.6773 | – | 159.3 ± 2.5 | – | –
313.15 K, x2 = 0.7295 | 1007.8 ± 0.26 | – | 1.452 ± 0.0006 | 1.136 ± 0.018
313.15 K, x2 = 0.7586 | – | 158.5 ± 2.5 | – | –
313.15 K, x2 = 0.8349 | 1034.54 ± 0.31 | – | 1.4592 ± 0.0006 | 1.26 ± 0.019
313.15 K, x2 = 0.8412 | – | 157.3 ± 2.4 | – | –
313.15 K, x2 = 0.9237 | – | 155.8 ± 2.4 | – | –
313.15 K, x2 = 0.938 | 1062.5 ± 0.36 | – | 1.4663 ± 0.0006 | 1.405 ± 0.022
313.15 K, x2 = 0.9579 | – | 155.1 ± 2.4 | – | –
